Experimental data reported in publication PMC3723878 (PLoS ONE, 2013).
Residue numbers refer to the chain shown, from its start.

Experiments:
Assay in all cases: Saturation binding of ^125I-HEAT
[1] = target: T1, human α1A-AR M292A variant (Homo sapiens, UniProt P35348, M292A)
T1 construct: expressed in transfected cells; host or cells: COS-7 (transient, calcium phosphate), membranes
T1 sequence (P35348 1-466 M292A): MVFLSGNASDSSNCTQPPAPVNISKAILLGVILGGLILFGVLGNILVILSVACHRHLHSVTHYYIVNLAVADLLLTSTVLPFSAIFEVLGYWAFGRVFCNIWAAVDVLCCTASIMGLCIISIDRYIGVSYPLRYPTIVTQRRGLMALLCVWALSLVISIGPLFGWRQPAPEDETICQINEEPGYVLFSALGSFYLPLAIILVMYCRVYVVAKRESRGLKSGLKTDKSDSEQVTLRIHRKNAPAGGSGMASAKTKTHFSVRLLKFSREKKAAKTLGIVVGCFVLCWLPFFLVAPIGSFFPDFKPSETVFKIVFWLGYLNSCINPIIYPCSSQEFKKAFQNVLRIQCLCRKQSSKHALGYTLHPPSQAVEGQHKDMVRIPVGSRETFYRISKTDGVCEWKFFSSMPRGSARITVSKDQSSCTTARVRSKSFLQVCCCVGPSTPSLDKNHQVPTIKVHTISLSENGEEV
From the text: (§1) α1A-AR cDNA inserted in the prK5 vector was kindly provided by Michael Brownstein (Craig Venter Institute, Rockville, MD). Point mutations were introduced into the α1A-AR gene by sense and antisense primers (Sigma-Aldrich, St Quentin-Fallavier, France) containing the desired changes, using the QuikChange Site-Directed Mutagenesis kit. The incorporation of each mutation was verified by DNA sequencing.
(§2) CHO cells stably expressing α1-ARs were kindly provided by Dr. Hervé Paris (INSERM U858, Toulouse, France) and were grown in a 50∶50 Dulbecco's Modified Eagle's Medium (DMEM)/Ham's F12 medium supplemented with 10% (v/v) foetal bovine serum (FBS), glutamine (2 mM), penicillin (100 units/ml) and streptomycin (100 µg/ml) at 37°C with 5% CO2. COS-7 cells were grown at 37°C under 5% CO2 in Dulbecco's modified Eagle's medium containing 10% fetal calf serum, 1% penicillin and 1% glutamine (Sigma-Aldrich, St Quentin-Fallavier, France). At 80% confluence, the cells were transfected using a calcium phosphate precipitation method for transient expression of the genetic construct. After 48 h incubation at 37°C, cells were harvested and the membranes were prepared as follow. Cells were washed with ice-cold phosphate buffer and centrifuged at 1700 g for 10 min (4°C). The pellet was suspended in ice-cold buffer (1 mM EDTA, 25 mM sodium phosphate, and 5 mM MgCl2, pH 7.4) and homogenized using an Potter-Elvehjem homogenizer (Fisher Scientific Labosi, Elancourt, France). The homogenate was centrifuged at 1700 g for 15 min (4°C). The sediment was resuspended in buffer, homogenized, and centrifuged at 1700 g for 15 min (4°C). The combined supernatants were centrifuged at 35,000 g for 30 min (4°C), and the pellet was suspended in the same buffer (0.1 ml/dish). […] Cells were grown in a 50∶50 Dulbecco's Modified Eagle's Medium (DMEM)/Ham's F12 medium supplemented with 10% (v/v) foetal bovine serum (FBS), glutamine (2 mM), penicillin (100 units/ml) and streptomycin (100 µg/ml) at 37°C with 5% CO2. Media was changed every 2–3 days and cells were passaged when confluent with 0.05% trypsin and 0.02% EDTA.
(§3) Binding experiments were performed in a 100 µL reaction mix at room temperature in buffer composed of 50 mM Tris-HCl, pH 7.4, 10 mM MgCl2, 1 g/L BSA. Reactions were stopped by filtration through 96 GF/C filter plates pre-incubated with 0.5% polyethylenimine.
(§4) Binding data were analyzed by nonlinear regression using the KaleidaGraph 4.0 software (Synergy software, Reading, PA). pKD values and Bmax (number of binding sites) were determined by applying a nonlinear regression to data obtained with saturation binding assays. The nonlinear regression used was BS = (Bmax*A)/KD+A, where BS is the specific binding, Bmax the number of binding sites, A the concentration of radioligand, and KD the dissociation constant of the radioligand. Data resulting from competition binding assays were analyzed using the Hill equation for IC50 and curve slope estimations. […] The linear curves were analyzed with IC50 = Ki+(L/KD)*Ki. Dissociation kinetics were analyzed using a simple equation of exponential decay BS * exp (-Koff*t), where BS is the specific binding at time zero and Koff is the dissociation rate constant. Results are expressed as mean ± s.e. mean from n independent experiments. One-way Anova test was used to compare values. A p<0.05 was accepted for statistical significance.

human α1A-AR WT = target: T2, human α1A-AR WT (Homo sapiens, UniProt P35348)
T2 construct: expressed in transfected cells; host or cells: COS-7, transient (calcium phosphate)
T2 sequence (P35348 1-466): T1 sequence (P35348 1-466 M292A) with A292M
From the text: as §1, §2, §3, §4

[2] = target: T3, human α1A-AR F86A variant (Homo sapiens, UniProt P35348, F86A); details: F86A (2.64), n = 3–6
T3 construct: expressed in transfected cells; host or cells: COS-7, transient (calcium phosphate)
T3 sequence (P35348 1-466 F86A): T1 sequence (P35348 1-466 M292A) with F86A, A292M
From the text: as §1, §2, §3, §4

With O=C1c2ccccc2CCC1CNCCc1ccc(O)c([125I])c1 (centres unmarked) [125I-HEAT] the “^125I-HEAT Ratio (loss of affinity relative to WT)” value ([1]; M292A) was 2.2, the “^125I-HEAT pKd” value ([1]; M292A (6.55), saturation binding, n = 3–6) was 9.69±0.09 and the “^125I-HEAT Ratio (affinity relative to WT)” value (human α1A-AR WT) was 1. The “^125I-HEAT pKd” value (human α1A-AR WT; saturation binding, n = 3–6) was 10.05±0.14 and the “^125I-HEAT pKd” value [2] was 8.68±0.09.
